Reference: ChEMBL document CHEMBL1255217, “Bioisosteric replacement leading to biologically active [2.2]paracyclophanes with altered binding profiles for aminergic G-protein-coupled receptors” (J Med Chem, 2010)
Active and inactive are the calls of the source. The calls are words filed in the database; no cut-off is given here.

What was measured:
[1] = species: Homo sapiens; experiment: Selectivity ratio of Ki for wild type human dopamine D3 receptor to Ki for human dopamine D3 receptor V2.61F mutant
[2] = species: Homo sapiens; experiment: Selectivity ratio of Ki for wild type human dopamine D3 receptor to Ki for human dopamine D3 receptor F6.52W mutant
[3] = Displacement of [3H]Prazosin from adrenergic alpha1 receptor in pig cerebral cortex homogenates; format: tissue-based, Sus scrofa
[4] = biological target: T1, D(2) dopamine receptor (Homo sapiens, UniProt P14416); experiment: Displacement of [3H]Spiperone from human dopamine D2 long receptor expressed in CHO cells; format: cell-based
T1 sequence (P14416 whole entry): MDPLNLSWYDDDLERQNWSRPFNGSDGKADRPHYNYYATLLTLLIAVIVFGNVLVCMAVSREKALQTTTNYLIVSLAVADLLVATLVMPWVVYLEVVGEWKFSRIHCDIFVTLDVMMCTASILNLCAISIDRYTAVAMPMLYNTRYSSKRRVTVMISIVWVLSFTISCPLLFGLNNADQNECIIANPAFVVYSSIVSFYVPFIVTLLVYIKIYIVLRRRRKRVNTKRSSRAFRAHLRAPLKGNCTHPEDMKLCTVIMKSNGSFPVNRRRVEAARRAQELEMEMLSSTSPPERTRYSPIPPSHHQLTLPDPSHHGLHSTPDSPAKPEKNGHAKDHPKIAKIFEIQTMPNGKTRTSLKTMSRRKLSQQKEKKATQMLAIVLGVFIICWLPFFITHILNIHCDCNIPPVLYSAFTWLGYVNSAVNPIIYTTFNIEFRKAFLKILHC

[5] = biological target: 5-hydroxytryptamine receptor 2A (Sus scrofa, UniProt P50129); experiment: Displacement of [3H]Ketanserin from 5-HT2 receptor in pig cortex membranes; format: cell membranes
Chain of 5-hydroxytryptamine receptor 2A (P50129 whole entry): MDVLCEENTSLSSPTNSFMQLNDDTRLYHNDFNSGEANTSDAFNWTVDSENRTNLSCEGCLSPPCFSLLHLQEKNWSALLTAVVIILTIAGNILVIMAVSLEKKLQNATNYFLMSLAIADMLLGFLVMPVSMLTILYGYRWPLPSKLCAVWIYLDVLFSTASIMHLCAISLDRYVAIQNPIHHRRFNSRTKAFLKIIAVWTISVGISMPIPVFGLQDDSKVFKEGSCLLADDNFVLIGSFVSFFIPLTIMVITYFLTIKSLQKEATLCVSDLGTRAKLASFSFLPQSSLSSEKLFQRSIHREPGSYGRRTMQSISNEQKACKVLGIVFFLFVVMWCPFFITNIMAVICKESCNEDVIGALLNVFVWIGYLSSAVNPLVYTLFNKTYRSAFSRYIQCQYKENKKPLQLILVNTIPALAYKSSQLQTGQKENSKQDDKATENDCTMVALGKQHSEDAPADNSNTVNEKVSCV

[6] = biological target: D(1A) dopamine receptor (Sus scrofa, UniProt P50130); experiment: Displacement of [3H]SCH23390 from dopamine D1 receptor in pig striatal membranes; format: cell membranes, Striatum, Membrane
Chain of D(1A) dopamine receptor (P50130 whole entry): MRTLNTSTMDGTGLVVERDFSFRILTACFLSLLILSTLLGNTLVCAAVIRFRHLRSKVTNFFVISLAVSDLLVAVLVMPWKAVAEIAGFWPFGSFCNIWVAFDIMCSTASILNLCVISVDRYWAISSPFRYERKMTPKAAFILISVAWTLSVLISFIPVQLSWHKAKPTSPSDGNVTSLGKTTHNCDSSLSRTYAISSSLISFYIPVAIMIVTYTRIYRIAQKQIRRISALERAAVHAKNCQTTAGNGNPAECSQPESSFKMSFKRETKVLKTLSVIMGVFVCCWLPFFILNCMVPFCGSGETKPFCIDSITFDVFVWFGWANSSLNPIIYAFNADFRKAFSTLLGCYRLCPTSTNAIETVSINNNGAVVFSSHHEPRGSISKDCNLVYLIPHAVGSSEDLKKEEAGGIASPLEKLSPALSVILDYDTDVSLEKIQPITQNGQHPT

[7] = biological target: T1, D(2) dopamine receptor; experiment: Displacement of [3H]Spiperone from human dopamine D2 short receptor expressed in CHO cells; format: cell-based
[8] = biological target: T2, D(3) dopamine receptor (Homo sapiens, UniProt P35462); experiment: Agonist activity at human dopamine D3 receptor expressed in dhfr deficient CHO cells assessed as [3H]thymidine incorporation; format: functional, cell-based
T2 sequence (P35462 whole entry): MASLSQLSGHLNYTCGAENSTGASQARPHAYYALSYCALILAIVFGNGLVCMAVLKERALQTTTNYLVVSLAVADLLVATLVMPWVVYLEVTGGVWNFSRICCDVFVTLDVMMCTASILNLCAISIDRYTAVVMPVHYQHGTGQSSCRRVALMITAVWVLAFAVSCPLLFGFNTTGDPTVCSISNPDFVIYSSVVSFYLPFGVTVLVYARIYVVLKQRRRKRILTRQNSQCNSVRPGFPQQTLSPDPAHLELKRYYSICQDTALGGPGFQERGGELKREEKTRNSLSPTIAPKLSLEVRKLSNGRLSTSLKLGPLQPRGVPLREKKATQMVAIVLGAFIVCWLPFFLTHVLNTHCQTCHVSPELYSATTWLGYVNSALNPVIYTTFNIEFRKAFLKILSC

[9] = biological target: T3, D(4) dopamine receptor (Homo sapiens, UniProt P21917); experiment: Displacement of [3H]Spiperone from human dopamine D4.4 receptor expressed in CHO cells; format: cell-based
T3 sequence (P21917 whole entry): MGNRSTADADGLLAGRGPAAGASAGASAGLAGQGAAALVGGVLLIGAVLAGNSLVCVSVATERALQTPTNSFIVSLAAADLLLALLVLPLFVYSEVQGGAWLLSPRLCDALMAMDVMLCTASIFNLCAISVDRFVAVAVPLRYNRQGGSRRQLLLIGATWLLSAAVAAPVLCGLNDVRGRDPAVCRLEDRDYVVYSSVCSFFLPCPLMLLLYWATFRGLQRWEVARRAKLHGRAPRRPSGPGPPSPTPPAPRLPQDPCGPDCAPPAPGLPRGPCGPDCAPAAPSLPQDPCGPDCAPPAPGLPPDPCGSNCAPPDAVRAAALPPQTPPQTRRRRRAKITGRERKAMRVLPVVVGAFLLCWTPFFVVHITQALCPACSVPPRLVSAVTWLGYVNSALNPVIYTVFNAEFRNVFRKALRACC

[10] = biological target: T2, D(3) dopamine receptor; experiment: Displacement of [3H]Spiperone from human dopamine D3 receptor expressed in CHO cells; format: cell-based

| Ratio Ki [1] | Ratio Ki [2] | Ki [3] [nM] | Ki [4] [nM] | Ki [5] [nM] | Ki [6] [nM] | Ki [7] [nM] | Activity [8] | Ki [9] [nM] | Ki [10] [nM] | Compound |
| --- | --- | --- | --- | --- | --- | --- | --- | --- | --- | --- |
| 24 | 2.4 | 490 | 83 | 1000 | 4000 | 150 | inactive | 880 | 1.6 | O=C(NCCCCN1CCN(c2cc3ccc2CCc2ccc(cc2)CC3)CC1)c1cc2ccccc2s1 |
| 40 | 38 | 20 | 84 | 1500 | 2400 | 65 |  | 300 | 2.5 | Cc1ccc(C)c(N2CCN(CCCCNC(=O)c3cc4ccccc4s3)CC2)c1 |
|  |  | 71 | 19 | 450 | 590 | 22 |  | 120 | 9.9 | O=C(CCCN1CCN(c2cc3ccc2CCc2ccc(cc2)CC3)CC1)c1ccc(F)cc1 |
|  |  | 3.2 | 13 | 850 | 210 | 16 |  | 17 | 76 | Cc1ccc(C)c(N2CCN(CCCC(=O)c3ccc(F)cc3)CC2)c1 |
|  |  | 13 | 63 | 440 | 340 | 61 |  | 7.6 |  | O=C(CCCN1CCN(c2ccc(Cl)cc2)CC1)c1ccc(F)cc1 |
|  |  | 180 | 620 | 1700 | 5400 | 440 |  | 120 | 410 | O=C(CCCN1CCN(c2ccc(Cl)cc2)CC1)c1cc2ccc1CCc1ccc(cc1)CC2 |
|  |  | 840 | 32 | 8200 | 7800 | 48 |  | 170 | 4 | O=C(NCCCCN1CCN(c2cc3ccc2CCc2ccc(cc2)CC3)CC1)c1cc2ccc1CCc1ccc(cc1)CC2 |
|  |  | 14 |  | 350 |  |  |  |  |  | COc1ccccc1N1CCN(CCCCNC(=O)c2cc3ccccc3s2)CC1 |
|  |  | 6.8 |  |  |  |  |  |  |  | O=C(CCCN1CCC(O)(c2ccc(Cl)cc2)CC1)c1ccc(F)cc1 [HALOPERIDOL] |
|  |  | 29 | 99 | 3600 | 3200 | 86 |  | 220 | 28 | Cc1ccc(C)c(C(=O)NCCCCN2CCN(c3cc(C)ccc3C)CC2)c1 |
|  |  | 4.2 | 24 | 2200 | 680 | 18 |  | 11 | 0.49 | COc1ccccc1N1CCN(CCCCNC(=O)c2cc3ccc2CCc2ccc(cc2)CC3)CC1 |

| Compound | Ratio Ki [1] | Ratio Ki [2] | Ki [3] [nM] | Ki [4] [nM] | Ki [5] [nM] | Ki [6] [nM] | Ki [7] [nM] | Activity [8] | Ki [9] [nM] | Ki [10] [nM] |
| --- | --- | --- | --- | --- | --- | --- | --- | --- | --- | --- |
| COc1ccccc1N1CCN(CCCCNC(=O)c2cc(C)ccc2C)CC1 |  |  | 14 | 22 | 1500 | 2100 | 17 |  | 23 | 4.7 |
| O=C(CCCN1CCC(O)(c2ccc(Cl)cc2)CC1)c1cc2ccc1CCc1ccc(cc1)CC2 |  |  |  |  | 2400 | 9800 |  |  | 39 | 17 |
| O=C(CCCN1CCC(O)(c2cc3ccc2CCc2ccc(cc2)CC3)CC1)c1ccc(F)cc1 |  |  | 2.9 | 4.8 | 19 | 100 | 3.6 |  | 0.72 | 53 |
| Cc1ccc(C)c(C(=O)CCCN2CCC(O)(c3cc(C)ccc3C)CC2)c1 |  |  | 11 |  | 1700 | 590 |  |  | 30 | 280 |
| Cc1ccc(C)c(C(=O)CCCN2CCC(O)(c3ccc(Cl)cc3)CC2)c1 |  |  | 35 | 15 | 690 | 3800 | 43 |  | 61 | 73 |
| Cc1ccc(C)c(C2(O)CCN(CCCC(=O)c3ccc(F)cc3)CC2)c1 |  |  | 1.3 | 3.4 | 110 | 19 | 6.5 |  | 20 | 27 |
| O=C(CCCN1CCC(O)(c2cc3ccc2CCc2ccc(cc2)CC3)CC1)c1cc2ccc1CCc1ccc(cc1)CC2 |  |  | 2800 |  | 1200 | 4900 |  |  | 30 | 38 |
